How the values were obtained:
NK cells [1] = experiment: IFN-gamma secretion of NK cells (Human IFN-y ELISA); type: cell-based; conditions: with IL-2 10 mg/L in typical medium, 48 hours; for IFN-r, Table 6: alloferon 100 mg/L
Method: IFN-r is an indicator of the activity of NK cells, and it is considered as the secretion amount is higher, the cytotoxicity is higher and the differentiation ability increases.
IFN-y secreted from NK cells was measured in the culture medium in which the cells were cultured, using a Human IFN-y ELISA kit (BD Biosciences, San Diego, CA, USA). 100 μl of capture antibody diluted in coating buffer was added to each well of a 96-well plate for ELISA, then sealed and left overnight at 4° C. It was washed three times using wash buffer, and all remaining buffer was removed. 200 μl of assay diluent was added to each well and reacted at room temperature for 1 hour for blocking. It was washed again three times using wash buffer, and all remaining buffer was removed. 100 μl of each prepared IFN-y standard and culture supernatants were added, the plate was sealed, and the reaction was performed at room temperature for 2 hours. It was washed 5 times using wash buffer, and all remaining buffer was removed. 100 μl of Working detector (Detection Antibody+SAv-HRP reagent) was added to each well, the plate was sealed, and reaction was performed at room temperature for 1 hour. It was washed 7 times using wash buffer, and all remaining buffer was removed. 100 μl of Substrate solution was added to each well and the reaction was performed at room temperature while shielding light for 30 minutes. 50 μl of Stop solution was added to each well, and the absorbance was measured at 450 nm within 30 minutes.

NK cells [2] = experiment: NK cell increase rate by flow cytometry (FACS, CD3-FITC/CD56-PE); type: cell-based, human; conditions: for NK (share of cells by FACS), Table 3 / NKT (share of cells by FACS), Table 3: 10 mg/L in NK cell culture medium of Example 1, 21 days
Method: Flow Cytometry (FACS analysis) analysis was performed to confirm the NK cell increase rate. Specifically, NK cells were cultured for 21 days in a medium containing 10 mg/L each of Test Example 1, Example 1 (untreated), and Alloferon 1 to 4 in Example 1. Cells before and after culture were collected by centrifugation at 1,400 rpm for 5minutes, and the collected cells were washed twice using PBS. Then, the cells were suspended in 1 ml of PBS, and the number of living cells was measured through Trypan blue staining. The cells were dispensed into FACS tubes at 1×10^6 cells/tube, and 2 ml of PBS was added. Then, centrifugation was performed at 400 g and 4° C. for 5 minutes, and the supernatant excluding cells was removed. 100 μl of 1% albumin was added to the remaining cell pellet, and antibodies were added and mixed with PBS. NK cells were treated with antibodies (CD3-FITC, CD56-PE), reacted in a light shielding state for 30 minutes, and then the cells were washed twice with PBS. NK cells were suspended in an appropriate amount of PBS, and then the data were compared and analyzed using FACSVerse (BD Biosciences, San Diego, CA, USA).

NK cells [3] = experiment: NK cell activation receptor (NKp30, NKp44, NKp46) and perforin expression by FACS; type: cell-based, human; conditions: for NKp30 expression / NKp44 expression / NKp46 expression / Perforin expression: NK cells proliferated 21 days, 10 mg/L in NK medium
Method: Based on the results of Test Example 3, receptor expression was confirmed and compared to measure the activity of NK cells. Specifically, as in Test Example 3, NK cells were cultured in each medium, and in order to measure the activity of NK cells proliferated for 21 days, the proliferated NK cells were isolated by flow cytometry. The expression of activating markers for these cells was further confirmed. The cultured NK cells were washed twice using PBS, then dispensed into a FACS tube at 1×10^6 cells/tube, and 2 ml of PBS was added. Then, centrifugation was performed at 400 g and 4° C. for 5 minutes, and the supernatant excluding cells was removed. 100 μl of 1% albumin was added to the remaining cell pellet, sorted using antibodies (CD3-FITC, CD56-PE) together with PBS, and then isolated according to surface markers. In addition to the isolated cells, NK cells were treated with antibodies (Anti-NKp30, anti-NKp44, anti NKp46, and Perforin) to confirm the expression of activating receptors (NKp30, NKp44, NKp46) and Perforin on the surface of NK cells, and reacted in a light shielding state for 30 minutes, and the cells were washed twice again using PBS. NK cells were suspended in an appropriate amount of PBS, and the data were compared and analyzed using FACS AriaII (BD Biosciences, San Diego, CA, USA).

NK cells [4] = experiment: Cell proliferation assay (incorporation of [3H]-thymidine), NK cell culture with added alloferon; type: cell-based, human; conditions: 0.1 to 100 mg/L tested, cultured 21 days, FIG. 3
Method: 30 ml of blood was collected from a human blood donor, RosetteSep NK enrichment antibody cocktail (50 ul/ml) was added thereto, and then diluted 1:1 v/v with phosphate buffer solution (PBS). The blood was centrifuged at 1600 rpm for 20 minutes using a density gradient centrifugation (Ficoll-Plaque) to separate the cell layer containing NK cells. The process of washing and centrifuging this with PBS was repeated twice. Then, the number of cells was counted by staining with trypan blue, and the average number of cells obtained was 1.6˜3.0×10^5 cell/ml, and the cells were cultured in NK cell culture medium.
The NK cell culture medium used was a combination of various substances that were conventionally known to be necessary for NK culture. […] This was used as the NK cell culture medium of Example 1, to which alloferon was further mixed and used at 0.1 to 100 mg/L as needed. […]
Specifically, NK cells (1×10^5 cells/ml) were placed in 96-well plates, and then treated with 10 mg/L each of alloferons 1 to 4 in the NK cell culture medium of Example 1, and then cultured in an environment at 5% CO2, 37° C. for 48 hours or 21 days. […] After that, the radioactivity was measured using 1450 MicroBeta TriLux (PerkinElmer Life and Analytical Sciences).

NK cells [5] = experiment: Co-treatment of alloferon and other interleukins, NK cell proliferation; type: cell-based, human; conditions: only alloferon 1 added at 10 mg/L, 21 days, FIG. 4
Method: Specifically, NK cells (1×10^5 cells/ml) were placed in 96-well plates, and then treated with 10 mg/L each of alloferons 1 to 4 in the NK cell culture medium of Example 1, and then cultured in an environment at 5% CO2, 37° C. for 48 hours or 21 days. After the culture, [^3H]-thymidine (37 mBq) was added at 0.2 μCi per well and cultured for 8 hours. Both cells and medium were transferred to a glass fiber filter (size 90.120 mm; Wallac, Turkr, Finland) using a 96-well harvester. After drying the filter, a scintillator sheet (Meltilex, Wallac) was melted to coat the filter. After that, the radioactivity was measured using 1450 MicroBeta TriLux (PerkinElmer Life and Analytical Sciences).
In order to identify factors that imparts the influence other than alloferon during NK cell culture, the NK cell proliferation effect was confirmed after co-treatment with various combinations of interleukins. Except for the medium composition, the NK cell culture method was the same as in Test Example 1, and the cells were cultured for 21 days (*** random period).

[6] = after culture (day 21), 10 mg/L in NK cell culture medium of Example 1

**Q.** How did the “IFN-r, Table 6” value (NK cells [1]) turn out when “HGVSGHGQHGVHG (engineered from known peptides) [Alloferon 1]” was run?
**A.** 6.32 µg/L

**Q.** What about the IFN-r (NK cells [1]; alloferon 1 0.1 mg/L) of the same sequence?
**A.** 0.13 µg/L

**Q.** What about the IFN-r (NK cells [1]; alloferon 1 5 mg/L) of the same sequence?
**A.** 1.82 µg/L

**Q.** And the IFN-r (NK cells [1]; alloferon 1 10 mg/L)?
**A.** 2.33 µg/L

**Q.** And the IFN-r (NK cells [1]; alloferon 1 50 mg/L)?
**A.** 4.86 µg/L

**Q.** What about the IFN-r (NK cells [1]; alloferon 1 100 mg/L) of the same sequence?
**A.** 6.32 µg/L

**Q.** And the “NK (share of cells by FACS), Table 3” value (NK cells [2])?
**A.** 74.7%

**Q.** And the “NKT (share of cells by FACS), Table 3” value (NK cells [2])?
**A.** 6.5%

**Q.** And the “increase in number of NK cells compared to typical medium (RPMI)” value (NK cells [2]; 10 mg/L, day 0 to day 21)?
**A.** 1,430 times

**Q.** What about the “increase of NK cells” value (NK cells [2]; 10 mg/L, day 0 to day 21) of the same sequence?
**A.** 8,790 fold

**Q.** What about the “increase of NKT cells” value (NK cells [2]; 10 mg/L, day 0 to day 21) of the same sequence?
**A.** 560 fold

**Q.** And the “NK (share of cells by FACS)” value (NK cells [2]; [6])?
**A.** 74.7%

**Q.** What about the “NKT (share of cells by FACS)” value (NK cells [2]; [6]) of the same sequence?
**A.** 6.5%

**Q.** What about the “NK (share of cells by FACS)” value (NK cells [2]; before culture (day 0)) of the same sequence?
**A.** 12.2%

**Q.** What about the “NKT (share of cells by FACS)” value (NK cells [2]; before culture (day 0)) of the same sequence?
**A.** 1.7%

**Q.** What about the “NK activity versus typical medium or NK cell culture medium of Example 1” value (NK cells [3]; 21 days culture, FIG. 6 / Table 4) of the same sequence?
**A.** higher NK activity

**Q.** What about the NKp30 expression (NK cells [3]) of the same sequence?
**A.** 57.4%

**Q.** And the NKp44 expression (NK cells [3])?
**A.** 60.3%

**Q.** What about the NKp46 expression (NK cells [3]) of the same sequence?
**A.** 88.4%

**Q.** What about the Perforin expression (NK cells [3]) of the same sequence?
**A.** 99.8%

**Q.** What about the “concentration at which the maximum amount of NK cells was reached” value (NK cells [4]) of the same sequence?
**A.** 10 mg/L

**Q.** And the NK cell proliferation (NK cells [5])?
**A.** NK cell proliferation was induced

**Q.** Which “IFN-r, Table 6” value (NK cells [1]) does the source give for “VSGHGQHGVH (engineered from known peptides) [Alloferon 4]” here?
**A.** 5.84 µg/L

**Q.** And the “NK (share of cells by FACS), Table 3” value (NK cells [2])?
**A.** 71.5%

**Q.** What about the “NKT (share of cells by FACS), Table 3” value (NK cells [2]) of the same sequence?
**A.** 8.4%

**Q.** And the NKp30 expression (NK cells [3])?
**A.** 61.1%

**Q.** And the NKp44 expression (NK cells [3])?
**A.** 68.2%

**Q.** And the NKp46 expression (NK cells [3])?
**A.** 82.5%

**Q.** What about the Perforin expression (NK cells [3]) of the same sequence?
**A.** 99.8%

**Q.** Which “IFN-r, Table 6” value (NK cells [1]) does the source give for “GVSGHGQHGVHG (engineered from known peptides) [Alloferon 2]” here?
**A.** 4.87 µg/L

**Q.** What about the “NK (share of cells by FACS), Table 3” value (NK cells [2]) of the same sequence?
**A.** 73.8%

**Q.** What about the “NKT (share of cells by FACS), Table 3” value (NK cells [2]) of the same sequence?
**A.** 12.4%

**Q.** And the NKp30 expression (NK cells [3])?
**A.** 53.2%

**Q.** What about the NKp44 expression (NK cells [3]) of the same sequence?
**A.** 50.9%

**Q.** And the NKp46 expression (NK cells [3])?
**A.** 78.6%

**Q.** What about the Perforin expression (NK cells [3]) of the same sequence?
**A.** 99.9%

**Q.** Which “IFN-r, Table 6” value (NK cells [1]) does the source give for “SGHGQHGV (engineered from known peptides) [Alloferon 3]” here?
**A.** 3.31 µg/L

**Q.** What about the “NK (share of cells by FACS), Table 3” value (NK cells [2]) of the same sequence?
**A.** 69.7%

**Q.** And the “NKT (share of cells by FACS), Table 3” value (NK cells [2])?
**A.** 13.2%

**Q.** What about the NKp30 expression (NK cells [3]) of the same sequence?
**A.** 47.8%

**Q.** What about the NKp44 expression (NK cells [3]) of the same sequence?
**A.** 51.3%

**Q.** And the NKp46 expression (NK cells [3])?
**A.** 69.1%

**Q.** What about the Perforin expression (NK cells [3]) of the same sequence?
**A.** 90.4%
